Assays:
THP-1 cells = assay: Cell growth inhibition assay (CellTiter-Glo), THP-1; settings: for GI50: Homo sapiens, THP-1, read-out: THP-1 GI50; for THP-1 TGI: THP-1 cells, total growth inhibition, CellTiter-Glo;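 as to all read-outs here: viability read as cellular ATP luminescence after 4 days, 3-fold dilution series from 10 µM, DMSO vehicle-treated cells taken as 100%, cell-free medium wells as −100%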
BRD2 (His-Brd2(60-472)) = BRD2 (His-Brd2(60-472)) (Homo sapiens (Human), UniProt P25440); assay: TR-FRET in-vitro binding assay for BRD2; settings: single determination or n ≧ 2 independent determinations, read-out: Biochemical IC50 BRD2
Procedure, shortened: (§1)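 TR-FRET binding with His-tagged bromodomain constructs, 8-point compound dilutions from 10 mM DMSO stocks. Reactions incubated 35 min at 30° C in 13.55 μL, read on an EnVision multilabel reader.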

BRD4 (His-Brd4(44-477)) = BRD4 (His-Brd4(44-477)) (Homo sapiens (Human), UniProt O60885); assay: TR-FRET in-vitro binding assay for BRD4; settings: single determination or n ≧ 2 independent determinations, read-out: Biochemical IC50 BRD4
Procedure, shortened: as §1

K-562 cells = assay: Cell growth inhibition assay (CellTiter-Glo), K-562; settings: for GI50: Homo sapiens, K562, read-out: K-562 GI50; for K-562 TGI: K-562 cells, total growth inhibition, CellTiter-Glo;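 as to all read-outs here: cellular ATP measured by luminescence after 4 days of exposure, 3-fold dilution series from 10 µM, DMSO vehicle-treated cells define 100%, cell-free medium wells −100%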
BRD3 (His-Brd3(20-477)) = BRD3 (His-Brd3(20-477)) (Homo sapiens (Human), UniProt Q15059); assay: TR-FRET in-vitro binding assay for BRD3; settings: single determination or n ≧ 2 independent determinations, read-out: Biochemical IC50 BRD3
Procedure, shortened: as §1

MV-4-11 cells = assay: Cell growth inhibition assay (CellTiter-Glo), MV-4-11; settings: for GI50: Homo sapiens, MV4-11, read-out: MV-4-11 GI50; for MV-4-11 TGI: MV-4-11 cells, total growth inhibition, CellTiter-Glo;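 as to all read-outs here: cellular ATP luminescence after 4 days, 3-fold dilution series from 10 µM top dose, vehicle (0.1% DMSO) set to 100%, cell-free medium set to −100%, day 0 corrected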
[1] = target: CREBBP bromodomain (His-CREBBP(1081-1197)) (Homo sapiens (Human), UniProt Q92793); assay: AlphaScreen in-vitro binding assay for CREBBP; settings: single determination or n ≧ 2 independent determinations, read-out: Biochemical IC50 CREBBP
Procedure, shortened: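 Reactions at 30 °C for 35 min, then Ni-chelate acceptor and streptavidin donor beads in HEPES pH 7.5, NaCl, Tween20, BSA, 60 min at room temperature. Eight-point compound series; IC50 by non-linear regression of percent inhibition.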

Sequence of BRD3 (His-Brd3(20-477)) (Q15059 20-477): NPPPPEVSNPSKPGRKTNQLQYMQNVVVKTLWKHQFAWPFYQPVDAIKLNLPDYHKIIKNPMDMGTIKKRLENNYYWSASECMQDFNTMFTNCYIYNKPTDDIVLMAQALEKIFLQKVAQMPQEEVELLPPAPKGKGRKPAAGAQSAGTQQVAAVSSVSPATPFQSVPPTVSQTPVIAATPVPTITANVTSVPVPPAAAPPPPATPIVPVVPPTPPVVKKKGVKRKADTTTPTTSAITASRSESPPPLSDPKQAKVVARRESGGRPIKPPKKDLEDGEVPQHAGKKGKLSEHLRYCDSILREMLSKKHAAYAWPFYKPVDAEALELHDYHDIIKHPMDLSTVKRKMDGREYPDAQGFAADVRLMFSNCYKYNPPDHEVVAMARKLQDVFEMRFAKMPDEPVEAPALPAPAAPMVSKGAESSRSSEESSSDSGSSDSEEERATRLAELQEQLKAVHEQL
Sequence of CREBBP bromodomain (His-CREBBP(1081-1197)) (Q92793 1081-1197): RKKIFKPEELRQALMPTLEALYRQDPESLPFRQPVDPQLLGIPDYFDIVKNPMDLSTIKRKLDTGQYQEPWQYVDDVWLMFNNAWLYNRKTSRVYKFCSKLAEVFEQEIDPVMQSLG
Sequence of BRD2 (His-Brd2(60-472)) (P25440 60-472): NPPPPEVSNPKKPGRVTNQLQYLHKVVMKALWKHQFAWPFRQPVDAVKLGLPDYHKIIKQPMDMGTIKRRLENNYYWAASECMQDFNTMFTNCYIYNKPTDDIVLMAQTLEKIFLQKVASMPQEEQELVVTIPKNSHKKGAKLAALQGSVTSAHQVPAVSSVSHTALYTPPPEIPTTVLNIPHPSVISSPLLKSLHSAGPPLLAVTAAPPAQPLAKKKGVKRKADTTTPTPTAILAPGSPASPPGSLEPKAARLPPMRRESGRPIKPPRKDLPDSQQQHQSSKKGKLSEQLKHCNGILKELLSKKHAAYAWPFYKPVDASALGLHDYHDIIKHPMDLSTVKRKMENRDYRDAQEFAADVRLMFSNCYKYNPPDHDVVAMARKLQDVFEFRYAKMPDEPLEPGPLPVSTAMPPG

| GI50 (THP-1 cells) | IC50 (BRD2 (His-Brd2(60-472))) | IC50 (BRD4 (His-Brd4(44-477))) | GI50 (K-562 cells) | IC50 (BRD3 (His-Brd3(20-477))) | GI50 (MV-4-11 cells) | IC50 [1] | SMILES | THP-1 TGI (THP-1 cells) | K-562 TGI (K-562 cells) | MV-4-11 TGI (MV-4-11 cells) |
| --- | --- | --- | --- | --- | --- | --- | --- | --- | --- | --- |
| 2 nM | 16 nM | < 11 nM | 8.73 nM | < 11 nM | 1.64 nM | > 37000 nM | COc1ncccc1-c1nc2c(n1C(C)C)[C@@H](c1ccc(Cl)cc1)N(c1cc(C)c3nnn(C)c3n1)C2=O [Example 158, (R)-6-(4-chlorophenyl)-5-(3,7-dimethyl-3H-[1,2,3]triazolo[4,5-b]pyridin-5-yl)-1-isopropyl-2-(2-methoxypyridin-3-yl)-5,6-dihydropyrrolo[3,4-d]imidazol-4(1H)-one] | 5.065 nM | >10000 nM | 3.29 nM |
| 12.1 nM | 16 nM | < 11 nM | 40.5 nM | 12 nM | 5.86 nM | 12600 nM | COc1ncc(-c2nc3c(n2C(C)C)[C@@H](c2ccc(Cl)cc2)N(c2cc(C)c4nnc(C(F)F)n4c2)C3=O)c(OC)n1 [Example 159, (R)-6-(4-chlorophenyl)-5-(3-(difluoromethyl)-8-methyl-[1,2,4]triazolo[4,3-a]pyridin-6-yl)-2-(2,4-dimethoxypyrimidin-5-yl)-1-isopropyl-5,6-dihydropyrrolo[3,4-d]imidazol-4(1H)-one] | 31.5 nM | >10000 nM | 15.6 nM |
| 6.09 nM | 30 nM | 15 nM | 75.2 nM | 16 nM | 5.99 nM | > 37000 nM | Cc1cc(N2C(=O)c3nc(C4=CCOCC4)n(C(C)C)c3C2c2ccc(Cl)cc2)nn2c(C(F)F)nnc12 (stereo not drawn) [Example 161, 6-(4-chlorophenyl)-5-(3-(difluoromethyl)-8-methyl-[1,2,4]triazolo[4,3-b]pyridazin-6-yl)-2-(3,6-dihydro-2H-pyran-4-yl)-1-isopropyl-5,6-dihydropyrrolo[3,4-d]imidazol-4(1H)-one] | 13.65 nM | >10000 nM | 13.65 nM |
| 103 nM | 63 nM | 35 nM | 537 nM | 53 nM | 33.6 nM | 1650 nM | Cc1cc(N2C(=O)c3nc(C4=CCOCC4)[nH]c3[C@H]2c2ccc(Cl)cc2)cn2c(C)nnc12 [Example 167, (R)-6-(4-chlorophenyl)-2-(3,6-dihydro-2H-pyran-4-yl)-5-(3,8-dimethyl-[1,2,4]triazolo[4,3-a]pyridin-6-yl)-5,6-dihydropyrrolo[3,4-d]imidazol-4(1H)-one] | 188.5 nM | >10000 nM | 57.85 nM |
| 5.65 nM | 17 nM | < 11 nM | 30.8 nM | < 11 nM | 2.99 nM | > 37000 nM | COc1ncccc1-c1nc2c(n1C(C)C)[C@@H](c1ccc(Cl)cc1)N(c1cc(C)c3nnc(C(F)F)n3n1)C2=O [Example 168, (R)-6-(4-chlorophenyl)-5-(3-(difluoromethyl)-8-methyl-[1,2,4]triazolo[4,3-b]pyridazin-6-yl)-1-isopropyl-2-(2-methoxypyridin-3-yl)-5,6-dihydropyrrolo[3,4-d]imidazol-4(1H)-one] | 18.9 nM | >10000 nM | 7.7 nM |
| 11.5 nM | 25 nM | 19 nM | 55.9 nM | 33 nM | 1.94 nM | > 37000 nM | Cc1cc(N2C(=O)c3nc(C4CCN(C)CC4)n(C(C)C)c3C2c2ccc(Cl)cc2)nn2c(C)nnc12 (stereo not drawn) [Example 169, 6-(4-chlorophenyl)-5-(3,8-dimethyl-[1,2,4]triazolo[4,3-b]pyridazin-6-yl)-1-isopropyl-2-(1-methylpiperidin-4-yl)-5,6-dihydropyrrolo[3,4-d]imidazol-4(1H)-one] | 32.95 nM | >10000 nM | 5.325 nM |

Reference: patent US9890166B2, “Imidazopyrrolidine derivatives and their use in the treatment of disease” (NOVARTIS AG, priority 2013, dated 2018)
